# In publication PMC10221320:
# Positions of bridges follow the written chain, without caps; N, C: chain ends. No end group written: not given here.
# Tests used:
# rat ASIC1a (rASIC1a) = assay: Two-electrode voltage clamp, rASIC1a in Xenopus laevis oocytes; type: cell-based; settings: 1 μM; pH drop from 7.4 to 5.5; −50 mV; n = 5; recombinant peptide
# CD-1 mice [1] = assay: Elevated plus maze test; type: in vivo, mouse; settings: for N (h-d), number of hanging-down reactions / N (racks), vertical activity / N (sap), number of stretch-attend postures / N. entries, closed arms / N. entries, open arms / S (act), distance traveled during activity / S, distance traveled / T (act), activity time / T (e.c.z.), time of exit from the central zone / T (pass), passivity time / V, average travel speed / V(act), average movement speed during activity / N. entries, central area / T., time spent in closed arms / T., time spent in central area / T., time spent in open arms: mean ± SD
# Procedure: (§1) The animal studies were performed under the European Commission’s legislation (Directives 86/609/EEC, 2010/63/EU), the National Standard of the Russian Federation “Good Laboratory Practice” (GOST P 53434-2009, Moscow, Russia), and Committee on Ethics of Laboratory Animal Handling № 05/21, 20 September 2021 and 08/21, 30 December 2021 protocols (PIBOC FEB RAS). Adult female CD-1 mice weighing 25 ± 2 g were subjected to a 12 h light–dark cycle at room temperature and with ad libitum access to food and water. There were seven or eight individuals in each group.
# The anti-anxiety activity of the peptides was studied using the elevated plus maze (OpenScience, Krasnogorsk, Russia) test, a cruciform arena raised 50 cm above the floor, where the central platform and two arms are open and lightened, and two arms are closed with walls. Three groups of animals were treated with peptides at doses of 0.01, 0.1 and 1 mg/kg (intravenously) 30 min before testing. The control group was injected with an identical volume (50 µL) of sterile saline. Animals were placed in the center of the lightened arena and the recording lasted 5 min. Using the software “Minotaur” (LLC “Neurobiotics”, Zelenograd, Russia), 12 parameters were estimated: time (T) of activity(act); passivity (pass); spent in closed, open arms, and on the central area; exit from the central zone (e.c.z.); average travel speed (V, m/s); average movement speed during activity (V(act)); distance traveled (S, m); distance traveled during activity (S (act)); a number (N) of entries into open, closed arms, and exits to the central area (entries); vertical activity (racks); and stretch–attend posture when the animal stretches to its full length mainly using the forepaws (sap).
# [2] = intraperitoneal administration; ref [40]; cited from earlier work
# CD-1 mice [3] = assay: Complete Freund's adjuvant-induced acute inflammation; type: in vivo, mouse
# Procedure: as §1
# Three groups of animals were treated with peptides at doses of 0.01, 0.1 and 1 mg/kg (intravenously) 30 min before the induction of inflammation. The control animal group received an identical volume of saline. The positive control group received diclofenac (Hemofarm A.D., Vršac, Serbia) at a dose of 1 mg/kg. The edema was induced by a 20 µL injection of complete Freund’s adjuvant (CFA) (MP Biomedicals, Irvine, CA, USA) in the hind paw pad. The resulting edema was measured at 1, 2, 4, 24 and 48 h using a plethysmometer (Ugo Basile, Gemonio (VA), Italy). The anti-inflammatory threshold was estimated as a decrease in the paw volume and volume growth index (%), calculated using the formula: Volume Growth Index (%) = [(VCFA − Vi)/Vi] × 100, (1), where VCFA is the volume of the paw after the introduction of CFA and Vi is the volume of the paw before the introduction of CFA.
# CD-1 mice [4] = assay: Acetic-acid-induced writhings (acid-induced muscle pain model); type: in vivo, mouse
# Procedure: as §1
# Three groups of animals were treated with peptides at doses of 0.01, 0.1 and 1 mg/kg (intravenously) 15 min before an injection of 300 μL of a 0.7% acetic acid solution. The control animal group received an identical volume of saline. The positive control group received intravenously a dose 1 mg/kg of diclofenac (Hemofarm A.D., Vršac, Serbia), a commercial drug of the NSAID group. Fifteen minutes immediately after acid administration, the number of writhings and the writhing time (time in a spasmodic state) were counted.
# CD-1 mice [5] = assay: Nociceptive reaction to direct hind paw pad injection; type: in vivo, mouse; settings: 1 mg/kg in the hind paw pad; 15 min
# Procedure: as §1
# For a direct Hmg 1b-4 injection (to eliminate the nociceptive reaction of potentiator of ASIC3 channels), it was dissolved in saline and administered at a dose of 1 mg/kg in the hind paw pad. The control group was injected with an identical volume (20 µL) of saline. The animals were placed individually, and a nociceptive reaction was registered for 15 min.
# CD-1 mice [6] = assay: Acute toxicity, intravenous; type: in vivo, mouse; settings: 1 mg/kg i.v., single; 24 h observation
# Procedure: as §1
# Lyophilized peptides were dissolved in 0.9% NaCl solution (saline) and administered once intravenously at doses of 1 mg/kg; the control group received saline (10 mL/kg or 250 µL/mouse). Then, alterations in physiological parameters, such as motility, behavioral responses and physical activity, were registered in each of the animal groups over 24 h.
# [7] = 0.01 mg/kg i.v. 30 min before testing, n = 7–8
# [8] = 0.1 mg/kg i.v. 30 min before testing, n = 7–8
# [9] = 1 mg/kg i.v. 30 min before testing, n = 7–8
# [10] = i.v. 15 min before 0.7% acetic acid
sequence,measurement,setting,value
"GTPCDCYGYTGVYWFMLSRCPSGYGYNLSCHYFMGICCVKR (disulfide 4-37, 6-30, 20-38 (inferred)) [Hmg 1b-4]",inhibition of rASIC1a currents,rat ASIC1a (rASIC1a),45%
same,"N (h-d), number of hanging-down reactions",CD-1 mice [1]; [7],19 ± 6.6
same,"N (racks), vertical activity",CD-1 mice [1]; [7],34 ± 14.3
same,"N (sap), number of stretch-attend postures",CD-1 mice [1]; [7],15 ± 2.3
same,"N. entries, closed arms",CD-1 mice [1]; [7],18 ± 4.8
same,"N. entries, open arms",CD-1 mice [1]; [7],15 ± 3.3
same,"S (act), distance traveled during activity",CD-1 mice [1]; [7],42.6 ± 8.0 m
same,"S, distance traveled",CD-1 mice [1]; [7],44.3 ± 8.3 m
same,"T (act), activity time",CD-1 mice [1]; [7],161.7 ± 10.6 s
same,"T (e.c.z.), time of exit from the central zone",CD-1 mice [1]; [7],3 ± 1.5 s
same,"T (pass), passivity time",CD-1 mice [1]; [7],137.7 ± 11.2 s
same,"V, average travel speed",CD-1 mice [1]; [7],0.15 ± 0.03 m/s
same,"V(act), average movement speed during activity","CD-1 mice [1]; 0.01 mg/kg i.v. 30 min before testing, n = 7–8 (SD on later line: Hmg 1b-2 0.02, Hmg 1b-4 0.02)",0.26 m/s
same,"N. entries, central area","CD-1 mice [1]; 0.01 mg/kg i.v. 30 min before testing, n = 7–8 (SD on later line: Hmg 1b-2 11.3)",36±9.4
same,"T., time spent in closed arms","CD-1 mice [1]; 0.01 mg/kg i.v. 30 min before testing, n = 7–8 (SD on later line: Hmg 1b-2 35.7, Hmg 1b-4 18.7)",180.1 s
same,"N (h-d), number of hanging-down reactions",CD-1 mice [1]; [8],20 ± 8.3
same,"N (racks), vertical activity",CD-1 mice [1]; [8],41 ± 4.8
same,"N (sap), number of stretch-attend postures",CD-1 mice [1]; [8],17 ± 3.6
same,"N. entries, central area",CD-1 mice [1]; [8],38 ± 8.4
same,"N. entries, closed arms",CD-1 mice [1]; [8],20 ± 6.6
same,"N. entries, open arms",CD-1 mice [1]; [8],22 ± 3.5
same,"S (act), distance traveled during activity",CD-1 mice [1]; [8],45.1 ± 6.1 m
same,"S, distance traveled",CD-1 mice [1]; [8],46.8 ± 6.1 m
same,"T (act), activity time",CD-1 mice [1]; [8],170.8 ± 16.1 s
same,"T (e.c.z.), time of exit from the central zone",CD-1 mice [1]; [8],8 ± 3.6 s
same,"T., time spent in central area",CD-1 mice [1]; [8],78.7 ± 15.3 s
same,"T., time spent in closed arms",CD-1 mice [1]; [8],169 ± 30.2 s
same,"T., time spent in open arms",CD-1 mice [1]; [8],84.3 ± 28.7 s
same,"V, average travel speed",CD-1 mice [1]; [8],0.14 ± 0.02 m/s
same,"V(act), average movement speed during activity","CD-1 mice [1]; 0.1 mg/kg i.v. 30 min before testing, n = 7–8 (SD on later line: Hmg 1b-2 0.01, Hmg 1b-4 0.03)",0.27 m/s
same,"T (pass), passivity time","CD-1 mice [1]; 0.1 mg/kg i.v. 30 min before testing, n = 7–8 (SD on later line: Hmg 1b-2 19.8)",128 ± 15.7 s
same,"N (h-d), number of hanging-down reactions",CD-1 mice [1]; [9],18 ± 5.2
same,"N (racks), vertical activity",CD-1 mice [1]; [9],45 ± 8.4
same,"N (sap), number of stretch-attend postures",CD-1 mice [1]; [9],14 ± 1.8
same,"N. entries, central area",CD-1 mice [1]; [9],29 ± 3.4
same,"N. entries, closed arms",CD-1 mice [1]; [9],19 ± 3.3
same,"N. entries, open arms",CD-1 mice [1]; [9],20 ± 2.5
same,"S (act), distance traveled during activity",CD-1 mice [1]; [9],41.0 ± 7.5 m
same,"S, distance traveled",CD-1 mice [1]; [9],43.1 ± 7.1 m
same,"T (act), activity time",CD-1 mice [1]; [9],174 ± 17.9 s
same,"T (e.c.z.), time of exit from the central zone",CD-1 mice [1]; [9],8 ± 6.5 s
same,"T., time spent in central area",CD-1 mice [1]; [9],73.8 ± 14.6 s
same,"T., time spent in open arms",CD-1 mice [1]; [9],89.6 ± 18.5 s
same,"V, average travel speed",CD-1 mice [1]; [9],0.14 ± 0.03 m/s
same,"V(act), average movement speed during activity","CD-1 mice [1]; 1 mg/kg i.v. 30 min before testing, n = 7–8 (SD on later line: Hmg 1b-2 0.02, Hmg 1b-4 0.04)",0.25 m/s
same,"T (pass), passivity time","CD-1 mice [1]; 1 mg/kg i.v. 30 min before testing, n = 7–8 (SD on later line: Hmg 1b-2 21.9, Hmg 1b-4 17.7)",125.7 s
same,"T., time spent in closed arms","CD-1 mice [1]; 1 mg/kg i.v. 30 min before testing, n = 7–8 (SD on later line: Hmg 1b-2 32.7, Hmg 1b-4 17.2)",160.2 s
same,"activity and immobility time, travelled distance and mean speed",CD-1 mice [1]; i.v.,approximately the same in all groups
same,anxiolytic effect,CD-1 mice [1]; i.v.,exhibit an anxiolytic effect
same,number of hangings from open sleeves,CD-1 mice [1]; i.v.,increase in the number of hangings from open sleeves
same,rears number,CD-1 mice [1]; i.v.,increase
same,"close area (closed arms) preference, share of time","CD-1 mice [1]; i.v., control group 63%",50%
same,maximal nontoxic dose,[2],10 mg/kg
same,decrease in paw volume and growth index of edema,CD-1 mice [3]; 1 mg/kg i.v.,more than 1.5 times
same,anti-inflammatory effect,"CD-1 mice [3]; 0.01, 0.1 and 1 mg/kg i.v. 30 min before CFA",demonstrated an anti-inflammatory effect at all tested doses
same,paw edema volume decrease compared with diclofenac,"CD-1 mice [3]; 1 and 0.1 mg/kg i.v., diclofenac 1 mg/kg i.v.",greater than the decreases caused by diclofenac
same,anti-inflammatory effectiveness vs other APETx-like / sea anemone peptides,CD-1 mice [3]; comparison with APETx2 and Ugr 9-1 data of ref [34],"significantly superior not only to Hmg 1b-2, but also to APETx2 and Ugr 9-1"
same,difference in analgesic activity between the two peptides,CD-1 mice [4]; i.v.,no significant difference in analgesic activity between each other
same,reduction in duration of writhings vs control,CD-1 mice [4]; [10],more than 2.5 times
same,reduction in number of writhings vs control,CD-1 mice [4]; [10],1.5 times
same,nociceptive reaction,CD-1 mice [5],did not induce a nociceptive reaction
same,toxicity symptoms,CD-1 mice [6],did not cause the symptoms of neurotoxicity or obvious changes in the behavior of animals
